From patent publication US6540976B1, “Method for reducing radiation toxicity” (The Board of Trustees of the University of Arkansas, priority 1997, dated 2003)

Tests used:
[1] = test system: radiation enteropathy (irradiated small bowel); assay: Rat small bowel radiation enteropathy model, single dose irradiation; format: in vivo, rats
Procedure: A 4-cm segment of distal ileum was sutured to the inside of the scrotum in orchiectomized male rats, thus forming an artificial “scrotal hernia”. The afferent bowel was divided 10 cm proximal to the “hernia”, an end ileostomy was prepared, and intestinal continuity was restored by end-to-side anastomosis. The intestine in the “hernia” was subsequently exposed to 0, 18, or 21 Gy single dose, or 8 daily fractions of 5.6 Gy (total dose 44.8 Gy), external beam X-irradiation. […] Mucosal injury was monitored non-invasively by assessment of granulocyte marker protein (GMP) excretion. Irradiated and shielded intestine were procured 2 weeks after irradiation and assessed for structural changes by histopathologic scoring, and for TGF-β, IL-1α, and ED-2 macrophage antigen immunoreactivity. Radiation injury scores are Ad the sum of 7 different histopathologic parameters graded according to severity. Intestinal wall thickness was measured with light microscopy and a stage micrometer. Intestinal wall TGF-β immunoreactivity levels were measured with computerized image analysis, and the number of ED-2 positive cells (macrophages) were counted with a light microscope and fields were determined according to a predetermined grid pattern.

[2] = test system: radiation enteropathy (irradiated small bowel); assay: Rat small bowel radiation enteropathy model, fractionated radiation; format: in vivo, rats; conditions: 8 x 5.6 Gy, 30 mg/kg q.d. for 14 days
Procedure: A 4-cm segment of distal ileum was sutured to the inside of the scrotum in orchiectomized male rats, thus forming an artificial “scrotal hernia”. The afferent bowel was divided 10 cm proximal to the “hernia”, an end ileostomy was prepared, and intestinal continuity was restored by end-to-side anastomosis. The intestine in the “hernia” was subsequently exposed to 0, 18, or 21 Gy single dose, or 8 daily fractions of 5.6 Gy (total dose 44.8 Gy), external beam X-irradiation. Orazipone or vehicle was injected through the stoma from 3 days prior to 2 weeks after irradiation. Mucosal injury was monitored non-invasively by assessment of granulocyte marker protein (GMP) excretion. Irradiated and shielded intestine were procured 2 weeks after irradiation and assessed for structural changes by histopathologic scoring, and for TGF-β, IL-1α, and ED-2 macrophage antigen immunoreactivity. Radiation injury scores are Ad the sum of 7 different histopathologic parameters graded according to severity. Intestinal wall thickness was measured with light microscopy and a stage micrometer. Intestinal wall TGF-β immunoreactivity levels were measured with computerized image analysis, and the number of ED-2 positive cells (macrophages) were counted with a light microscope and fields were determined according to a predetermined grid pattern.
To evaluate the effects of Orazipone following fractionated radiation, the transposed loop of small bowel was exposed to sham-irradiation or 8 daily fractions of 5.6 Gy (total dose 44.8 Gy). Orazipone (30 mg/kg q.d.) or vehicle was delivered for 14 days in 2 separate experimental groups. Group 1 received the drug during and after irradiation (radiation day 2 through post-radiation day 7), while Group 2 received the drug only after irradiation (post-radiation days 0 through 13). All animals were euthanized on post-radiation day 14.

mononuclear cells = conditions: cited from earlier work
neutrophils = conditions: cited from earlier work
T-cell = conditions: cited from earlier work
[3] = in vivo; cited from earlier work
[4] = single dose irradiation, vs vehicle-treated controls, p<0.01
[5] = given either during or after irradiation

CC(=O)C(=Cc1ccc(S(C)(=O)=O)cc1)C(C)=O [Orazipone]
TGF-β overexpression ([1]; 30 mg/kg daily for 1 week after a single dose of 21 Gy): significantly attenuated
frequency of subacute severe small bowel radiation toxicity ([1]; 30 mg/kg daily for 1 week after a single dose of 21 Gy, reduced from 80% (control)): 25%
GMP excretion ([1]; single dose irradiation): not significantly affected
macrophage accumulation ([1]; single dose irradiation): not significantly affected
extracellular matrix-associated TGF-β immunoreactivity [1, 4]: less
histopathologic injury of irradiated intestine [1, 4]: less
intestinal wall thickening ([1]; single dose irradiation, vs vehicle-treated controls, p<0.05): less
IL-1α positive cells ([1]; single dose irradiation, vs vehicle-treated controls, p=0.05): less
subacute radiation enteropathy as assessed by Radiation Injury Score [2, 5]: significantly ameliorated
subacute radiation enteropathy as assessed by extracellular matrix-associated TGF-β immunoreactivity [2, 5]: significantly ameliorated
subacute radiation enteropathy as assessed by intestinal wall thickness [2, 5]: significantly ameliorated
extent of mucosal injury (mucosal surface area measurements) ([2]; among the treatment groups): did not differ
release of IL-1α, IL-1β and TNFα from mononuclear cells (mononuclear cells): inhibits
NADPH oxidase and LTB4 production by neutrophils (neutrophils): suppresses
T-cell proliferation and IL-2 release (T-cell): reduces
fate of absorbed drug (metabolism) [3]: broken down into inactive metabolites very quickly
